The source of these data is US20240043435A1, “TYK-2 INHIBITOR” (BEIGENE, LTD., priority 2020, published 2024).

pIC50: −log10 of the molar value.

For assay [1], the target named is T1, JAK1-JH2 protein (aa 561-860, in-house) (Homo sapiens, UniProt P23458).
T1 construct: JAK1-JH2 protein (aa 561-860, in-house); made in house
Nature of the assay: JAK1-JH2 biochemical assay (HTRF probe displacement). Format: binding. As to the method:
Assay B: JAK1-JH2 Biochemical Assay
Compounds disclosed herein were tested for blocking of JAK1-JH2 protein (aa 561-860, in-house) with its probe in an assay based on Homogeneous Time Resolved Fluorescence. Compound dilution is done according to the following protocol: (1) Prepare 500× compounds solution in DMSO from 500 uM by 5-fold dilution, total 10 doses were included; (2) Prepare 10× compounds solution in an assay buffer containing 20 mM HEPES, pH 7.5, 10 mM MgCl2, 0.005% BSA, 2 mM DTT, 0.015% Brij-35 by transferring 1 μl serial 500× stock solution into 49 μl assay buffer. 4 μL of 1.17 nM recombinant JAK1-JH2 protein was pre-incubated with 1 μl of 10× serial dilution of compounds at room temperature for 0.5 hour. […] The HTRF signals (ex337 nm, em620 nm/665 nm) were read on BMG PHERAstar FS instrument. The inhibition percentage of JAK1 interaction with its probe in presence of increasing concentrations of compounds was calculated based on the ratio of fluorescence at 615 nm to that at 665 nm. The IC50 for each compound was derived from fitting the data to the four-parameter logistic equation by Dotmatics.

The target in assay [2] is T2, TYK2-JH2 (aa 575-869, in-house) protein (Homo sapiens, UniProt P29597).
T2 construct: TYK2-JH2 (aa 575-869, in-house) protein; made in house
T2 sequence (P29597 575-869): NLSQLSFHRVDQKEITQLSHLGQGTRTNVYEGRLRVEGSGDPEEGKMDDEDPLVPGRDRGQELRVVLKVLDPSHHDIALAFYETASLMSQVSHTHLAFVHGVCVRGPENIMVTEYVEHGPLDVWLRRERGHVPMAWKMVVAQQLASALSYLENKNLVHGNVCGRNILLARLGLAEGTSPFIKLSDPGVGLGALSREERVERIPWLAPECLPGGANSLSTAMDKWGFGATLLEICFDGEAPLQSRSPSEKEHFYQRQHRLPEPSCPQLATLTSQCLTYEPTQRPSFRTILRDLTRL
In words: TYK2-JH2 biochemical assay (HTRF probe displacement). Particulars: for Selectivity fold (TYK2/JAK1) / pIC50: Biochemical assay; for Selectivity fold (TYK2/JAK1): JAK1-JH2 IC50 vs TYK2-JH2 IC50; for pIC50: read-out: TYK2-JH2 IC50; for fold less potent (orth vs meta methylsulfonyl; B15 vs B1, B14 vs B5): Tyk2 JH2 bio-chemical potency. Format: binding. In a few lines: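 HTRF probe-displacement format: compound dilutions (10 points, 5-fold, from 500 uM in DMSO at 500×) were combined with 0.2 nM TYK2-JH2 protein for 0.5 h at room temperature in HEPES pH 7.5 buffer with MgCl2, BSA, DTT and Brij-35. Percent inhibition came from the 615/665 nm fluorescence ratio, fitted to a four-parameter logistic for IC50.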
In general terms: In TR-FRET formats the signal depends on donor and acceptor labels being close together.

For assay [3], the system named is JAK2, TYK2/p-STAT4 (Tyr693) activated by IL-12 in NK-92 cell line. In words: IL-12-JAK2, TYK2/p-STAT4 (Tyr693) inhibition IC50 cellular assay. Type of assay: cell-based. Particulars: for pIC50: NK92, Cellular assay, read-out: pSTAT4/IL-12 IC50; for Selectivity fold (TYK2/JAK2): Cellular assay, pSTAT5/GM-CSF IC50 vs pSTAT4/IL-12 IC50. In a few lines:
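p-STAT4 (Tyr693) in lysates was measured by AlphaLISA SureFire Ultra after a 30 min IL-12 challenge (40 ng/ml final) at 37° C. Overnight-starved, IL-2-free NK-92 cells had been pretreated 1 h with compound at 10000 to 0.61 nM (4-fold, 8 points). IC50 values came from four-parameter logistic fitting.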

Another assay relates to pSTAT5/GM-CSF. In words: pSTAT5/GM-CSF cellular assay (JAK2 selectivity). Format: cell-based. Particulars: for Selectivity fold (TYK2/JAK2): pSTAT5/GM-CSF IC50 over pSTAT4/IL-12 IC50.

T1 sequence (P23458 561-860): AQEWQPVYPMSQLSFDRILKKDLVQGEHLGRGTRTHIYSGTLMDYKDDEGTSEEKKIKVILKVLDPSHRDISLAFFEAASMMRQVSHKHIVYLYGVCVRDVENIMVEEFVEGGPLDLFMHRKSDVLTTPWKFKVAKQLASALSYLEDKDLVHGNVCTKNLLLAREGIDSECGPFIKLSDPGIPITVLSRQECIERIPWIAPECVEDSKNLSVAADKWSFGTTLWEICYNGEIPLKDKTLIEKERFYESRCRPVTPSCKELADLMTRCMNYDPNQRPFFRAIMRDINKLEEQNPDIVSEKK

In turn, `CC(=O)Nc1cc(Nc2cccc(S(C)(=O)=O)c2)c(C2CCCO2)cn1` (stereo not shown) [Example A2, N-[4-[(3-methanesulfonylphenyl)amino]-5-(oxolan-2-yl)pyridin-2-yl]acetamide] had a pIC50 in assay [1] of 6.08. Further, in assay [2], the “Selectivity fold (TYK2/JAK1)” value came out at 159 fold and the pIC50 was 8.28.
For `CC(=O)Nc1cc(Nc2cccc(S(C)(=O)=O)c2)c(-c2cnccn2)cn1` [Example A5, N-(4-((3-(methylsulfonyl)phenyl)amino)-5-(pyrazin-2-yl)pyridin-2-yl)acetamide], in that order: 7.23, 120 fold and 9.31.
Molecule `CC(=O)Nc1cc(Nc2ccccc2)c(-c2ccccn2)cn1` [Example B3, N-(4′-(phenylamino)-[2,3′-bipyridin]-6′-yl)acetamide] showed a pIC50 in assay [1] of 8.05. For the same molecule, in assay [2], the “Selectivity fold (TYK2/JAK1)” value was 8.1 fold and the pIC50 was 8.96.
Regarding `CC(=O)Nc1cc(Nc2ccccc2S(C)(=O)=O)c(-c2ccccn2)cn1` [Example B15, N-(4′-((2-(methylsulfonyl)phenyl)amino)-[2,3′-bipyridin]-6′-yl)acetamide], the pIC50 in assay [1] was 6.63. Besides, in assay [2], the “Selectivity fold (TYK2/JAK1)” value is reported as 1 fold; the pIC50 was 6.93; the “fold less potent (orth vs meta methylsulfonyl; B15 vs B1, B14 vs B5)” value is reported as 3079 fold.
In turn, `CS(=O)(=O)c1cccc(Nc2cc(NC(=O)C3CC3)ncc2-c2ccccn2)c1` [Example B20, N-(4′-((3-(methylsulfonyl)phenyl)amino)-[2,3′-bipyridin]-6′-yl)cyclopropanecarboxamide] gave a pIC50 in assay [1] of 7.12. In addition, in assay [2], the “Selectivity fold (TYK2/JAK1)” value was 50 fold and the pIC50 is 8.82. In addition, the “Tyk2 inhibition potency on replacing R methyl (Example B1) by cyclopropane” value in assay [2] (compared with Example B1) is given as “dramatically decreased”.
Consider `CC(=O)Nc1cc(Nc2cccc(S(C)(=O)=O)c2)c(-c2cnc(C)cn2)cn1` [Example A4, N-(5-(5-methylpyrazin-2-yl)-4-((3-(methylsulfonyl)phenyl)amino)pyridin-2-yl)acetamide], for which the pIC50 in assay [1] was 7.23. In assay [2], the “Selectivity fold (TYK2/JAK1)” value came to 113 fold and the pIC50 was 9.28.
On to `CS(=O)(=O)c1cccc(Nc2cc(N)ncc2-c2ccccn2)c1` [Example B19, N4′-(3-(methylsulfonyl)phenyl)-[2,3′-bipyridine]-4′,6′-diamine], for which the pIC50 in assay [1] was 6.59. Further, in assay [2], the “Selectivity fold (TYK2/JAK1)” value came to 14.2 fold and the pIC50 was 7.74.
As for `CC(=O)Nc1cc(Nc2cccc(S(C)(=O)=O)c2)c(N2CCCC2=O)cn1` [Example A7, N-(4-((3-(methylsulfonyl)phenyl)amino)-5-(2-oxopyrrolidin-1-yl)pyridin-2-yl)acetamide], in assay [1], the pIC50 was below 5.00. Besides, in assay [2], the “Selectivity fold (TYK2/JAK1)” value is above 14 fold and the pIC50 was 6.17.
Turning to `CC(=O)Nc1cc(Nc2cc(OCC3(C)COC3)cc(S(C)(=O)=O)n2)c(-c2ccc3c(n2)OCC(C)(C)O3)cn1` [Example Q98, N-(5-(2,2-dimethyl-2,3-dihydro-[1,4]dioxino[2,3-b]pyridin-6-yl)-4-((4-((3-methyloxetan-3-yl)methoxy)-6-(methylsulfonyl)pyridin-2-yl)amino)pyridin-2-yl)acetamide], the pIC50 is 8.94 in assay [3], below 5.00 in the assay on pSTAT5/GM-CSF and 10.59 in assay [2]. Also, the “Selectivity fold (TYK2/JAK2)” value in the assay on pSTAT5/GM-CSF is on record as above 8695 fold.
As for `COCCOc1cc(Nc2cc(NC(C)=O)ncc2-c2ccc(C(F)(F)F)cn2)nc(S(C)(=O)=O)c1` [Example F11, N-(4′-((4-(2-methoxyethoxy)-6-(methylsulfonyl)pyridin-2-yl)amino)-5-(trifluoromethyl)-[2,3′-bipyridin]-6′-yl)acetamidecarboxamide], the “Selectivity fold (TYK2/JAK2)” value in assay [3] was above 14184 fold. Also, the values for the pIC50 (in assay [3]; with pSTAT5/GM-CSF; in assay [2]) were 9.15, below 5.00 and 10.43, respectively.
With `CC(=O)Nc1cc(Nc2cc(N3CCC(O)C3)cc(S(C)(=O)=O)c2)c(-c2ccc(C(C)(C)O)cn2)cn1` (stereo not shown) [Example H17, N-(5-(2-hydroxypropan-2-yl)-4′-((3-(3-hydroxypyrrolidin-1-yl)-5-(methylsulfonyl)phenyl)amino)-[2,3′-bipyridin]-6′-yl)acetamide], in assay [3], the “Selectivity fold (TYK2/JAK2)” value was above 149 fold. The pIC50 in assay [3] is 7.17; with pSTAT5/GM-CSF it was below 5.00; in assay [2] it was 10.47.
In assay [1], `CC(=O)Nc1cc(Nc2ncccc2S(C)(=O)=O)c(-c2ccccn2)cn1` [Example B14, N-(4′-((3-(methylsulfonyl)pyridin-2-yl)amino)-[2,3′-bipyridin]-6′-yl)acetamide] gave a pIC50 of 6.84. In assay [2], the “Selectivity fold (TYK2/JAK1)” value was 1 fold; the pIC50 is 7.10; the “fold less potent (orth vs meta methylsulfonyl; B15 vs B1, B14 vs B5)” value is recorded as 5000 fold.
On to `COc1cc(Nc2cc(NC(C)=O)ncc2-c2ccn([C@@H]3CCOC3)n2)nc(S(C)(=O)=O)c1` [Example M35, (R)-N-(4-((4-methoxy-6-(methylsulfonyl)pyridin-2-yl)amino)-5-(1-(tetrahydrofuran-3-yl)-1H-pyrazol-3-yl)pyridin-2-yl)acetamide], for which the pIC50 is 7.30 in assay [3], below 5.00 in the assay with pSTAT5/GM-CSF and 10.44 in assay [2]. Further, the “Selectivity fold (TYK2/JAK2)” value with pSTAT5/GM-CSF is listed as above 199 fold.
For the molecule `CC(=O)Nc1cc(Nc2cc(OCC3CC3)cc(S(C)(=O)=O)n2)c(-c2ccc(C(C)(C)O)cn2)cn1` [Example H30, N-(4′-((4-(cyclopropylmethoxy)-6-(methylsulfonyl)pyridin-2-yl)amino)-5-(2-hydroxypropan-2-yl)-[2,3′-bipyridin]-6′-yl)acetamide], the “Selectivity fold (TYK2/JAK2)” value in assay [3] is on record as above 10288 fold. Besides, the pIC50 in assay [3] is 9.01; in the assay with pSTAT5/GM-CSF it was below 5.00; in assay [2], 10.64.
As to `CC(=O)Nc1cc(Nc2cc(C)cc(S(C)(=O)=O)n2)c(-c2ccc(N3C[C@@H](C)O[C@@H](C)C3)cn2)cn1` [Example C1, N-(5-(cis-2,6-dimethylmorpholino)-4′-((4-methyl-6-(methylsulfonyl)pyridin-2-yl)amino)-[2,3′-bipyridin]-6′-yl)acetamide], in assay [3], the “Selectivity fold (TYK2/JAK2)” value turned out to be 639 fold. Also, the pIC50 in assay [3] is 9.06; in the assay on pSTAT5/GM-CSF it was 6.25; in assay [2], 10.57.
Regarding `COc1cc(Nc2cc(NC(C)=O)ncc2-c2cc(C)n(C)n2)nc(S(C)(=O)=O)c1` [Example N4, N-(5-(1,5-dimethyl-1H-pyrazol-3-yl)-4-((4-methoxy-6-(methylsulfonyl)pyridin- -2-yl)amino)pyridin-2-yl)acetamide], the pIC50 in assay [3] is 9.86; in the assay with pSTAT5/GM-CSF, below 5.00; in assay [2] it was 10.54. In the assay on pSTAT5/GM-CSF, the “Selectivity fold (TYK2/JAK2)” value is recorded as above 72992 fold.
With `COCc1cc(Nc2cc(NC(C)=O)ncc2-c2ccn(C)n2)nc(S(C)(=O)=O)c1` [Example J19, N-(4-((4-(methoxymethyl)-6-(methylsulfonyl)pyridin-2-yl)amino)-5-(1-methyl-1H-pyrazol-3-yl)pyridin-2-yl)acetamide], the pIC50 is 9.05 in assay [3], below 5.00 in the assay on pSTAT5/GM-CSF and 10.82 in assay [2]. Besides, the “Selectivity fold (TYK2/JAK2)” value with pSTAT5/GM-CSF is on record as above 1137 fold.
For the molecule `CC(=O)Nc1cc(Nc2cc(OC3CCCC3)cc(S(C)(=O)=O)n2)c(-c2ccn(C)n2)cn1` [Example J45, N-(4-((4-(cyclopentyloxy)-6-(methylsulfonyl)pyridin-2-yl)amino)-5-(1-methyl-1H-pyrazol-3-yl)pyridin-2-yl)acetamide], the pIC50 in assay [3] was 9.40; in the assay on pSTAT5/GM-CSF it was below 5.00; in assay [2], 10.55. Also, the “Selectivity fold (TYK2/JAK2)” value in the assay on pSTAT5/GM-CSF is above 25125 fold.
For `CCn1ccc(-c2cnc(NC(C)=O)cc2Nc2cccc(S(C)(=O)=O)c2)n1` [Example M8, N-(5-(1-ethyl-1H-pyrazol-3-yl)-4-((3-(methylsulfonyl)phenyl)amino)pyridin-2-yl)acetamide], in that order: 8.79, below 5.00, 10.40 and above 6097 fold.
